Laboratory results reported in PubChem BioAssay AID330 (DTP/NCI, 2004).
“And” between values parts separate entries of the source, which are not always exact repeats. Identical values can stand only once. Inconclusive results and toxic doses are left out. The calls were made as follows: active = survival T/C of 150% or more; inactive = T/C below 125% in these data.

System: P388 leukemia ip, CD2F1 mice, survival T/C
Test: NCI In Vivo Anticancer Drug Screen. Data for tumor model P388 Leukemia (intraperitoneal) in CD2F1 (CDF1) mice
Settings: endpoint: median survival time, higher = longer survival
How it was run: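 Mice carrying the transplanted tumor received test compound or vehicle. Survival was recorded in each group, and the value is the treated-group measurement divided by that of the vehicle-treated control group.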

[1] = dose: 25.0 mg/kg/injection, schedule: Q01DX005 (ip), vehicle: Klucel (hydroxypropylcellulose) (HPC)
[2] = dose: 50.0 mg/kg/injection, schedule: Q01DX005 (ip), vehicle: Klucel (hydroxypropylcellulose) (HPC)
[3] = dose: 200.0 mg/kg/injection, schedule: Q01DX005 (ip), vehicle: Klucel (hydroxypropylcellulose) (HPC)
[4] = dose: 100.0 mg/kg/injection, schedule: Q01DX005 (ip), vehicle: Klucel (hydroxypropylcellulose) (HPC)
[5] = dose: 100.0 mg/kg/injection, schedule: Q01DX001 (ip), vehicle: Klucel (hydroxypropylcellulose) (HPC)
[6] = dose: 50.0 mg/kg/injection, schedule: Q01DX009 (ip), vehicle: Klucel (hydroxypropylcellulose) (HPC)
[7] = dose: 60.0 mg/kg/injection, schedule: Q01DX005 (ip), vehicle: saline with Tween-80
[8] = dose: 120.0 mg/kg/injection, schedule: Q01DX005 (ip), vehicle: saline with Tween-80
[9] = dose: 240.0 mg/kg/injection, schedule: Q01DX005 (ip), vehicle: saline with Tween-80

Measured: T/C

CN(C)N=Nc1ccc(C(=O)NC(Cc2ccccc2)C(=O)O)cc1 (configuration not stated)
inactive: dose: 12.5 mg/kg/injection, schedule: Q01DX005 (ip), vehicle: Klucel (hydroxypropylcellulose) (HPC) 100 % of control | [1] 101 % of control | [2] 98 % of control and 102 % of control | [3] 107 % of control

C=C1CN(C(=O)c2ccccc2)C(=S)S1
inactive: dose: 50.0 mg/kg/injection, schedule: Q01DX005 (ip), vehicle: saline with Tween-80 108 % of control | dose: 100.0 mg/kg/injection, schedule: Q01DX005 (ip), vehicle: saline with Tween-80 108 % of control | dose: 200.0 mg/kg/injection, schedule: Q01DX005 (ip), vehicle: saline with Tween-80 103 % of control

O=C1OC(=O)C2CC3C(CC12)C1(Cl)C(Cl)=C(Cl)C3(Cl)C1(Cl)Cl (configuration not stated)
inactive: [2] 104 % of control | [4] 100 % of control | [3] 107 % of control

CCOc1ccc(C(CC(=O)O)CC(=O)N(CCCl)CCCl)cc1 (configuration not stated)
inactive: dose: 100.0 mg/kg/injection, schedule: Q04DX003 (ip), vehicle: suspension in saline 101 % of control | dose: 200.0 mg/kg/injection, schedule: Q04DX003 (ip), vehicle: suspension in saline 102 % of control | dose: 400.0 mg/kg/injection, schedule: Q04DX003 (ip), vehicle: suspension in saline 105 % of control

CS(=N)(=O)CCC(N)P(=O)(O)O (configuration not stated)
inactive: dose: 50.0 mg/kg/injection, schedule: Q01DX005 (ip), vehicle: saline 95 % of control | dose: 100.0 mg/kg/injection, schedule: Q01DX005 (ip), vehicle: saline 92 % of control | dose: 200.0 mg/kg/injection, schedule: Q01DX005 (ip), vehicle: saline 100 % of control

CCOc1ccc(N=NC2C(=O)N(c3cccc(Cl)c3Cl)C(=S)N(c3ccc(OC)cc3)C2O)cc1 (configuration not stated)
inactive: [5] 100 % of control | dose: 200.0 mg/kg/injection, schedule: Q01DX001 (ip), vehicle: Klucel (hydroxypropylcellulose) (HPC) 96 % of control | dose: 400.0 mg/kg/injection, schedule: Q01DX001 (ip), vehicle: Klucel (hydroxypropylcellulose) (HPC) 96 % of control

C(=Nc1ccccc1)C1=C(Nc2ccccc2)CCC1
inactive: [2] 100 % of control | [4] 100 % of control | [3] 106 % of control

OC(c1ccccc1)(c1ccc(Br)cc1)C1CC1 (configuration not stated)
inactive: dose: 25.0 mg/kg/injection, schedule: Q01DX001 (ip), vehicle: Klucel (hydroxypropylcellulose) (HPC) 100 % of control | dose: 50.0 mg/kg/injection, schedule: Q01DX001 (ip), vehicle: Klucel (hydroxypropylcellulose) (HPC) 96 % of control | [5] 97 % of control

CC(=O)[O-].CC(=O)[O-].CC(=O)[O-].CC(=O)[O-].Cn1c(=O)c2[nH]cnc2n(C)c1=O.Cn1c(=O)c2[nH]cnc2n(C)c1=O.[Rh+2].[Rh+2]
inactive: dose: 3.12 mg/kg/injection, schedule: Q04DX002 (ip), vehicle: Klucel (hydroxypropylcellulose) (HPC) 100 % of control | dose: 6.25 mg/kg/injection, schedule: Q04DX002 (ip), vehicle: Klucel (hydroxypropylcellulose) (HPC) 101 % of control and 120 % of control | dose: 12.5 mg/kg/injection, schedule: Q04DX002 (ip), vehicle: Klucel (hydroxypropylcellulose) (HPC) 101 % of control and 118 % of control | dose: 25.0 mg/kg/injection, schedule: Q04DX002 (ip), vehicle: Klucel (hydroxypropylcellulose) (HPC) 103 % of control and 110 % of control | dose: 50.0 mg/kg/injection, schedule: Q04DX002 (ip), vehicle: Klucel (hydroxypropylcellulose) (HPC) 103 % of control

Nc1ccc(-c2csc(-c3ccccc3)n2)c(Cl)c1
inactive: dose: 12.5 mg/kg/injection, schedule: Q01DX009 (ip), vehicle: Klucel (hydroxypropylcellulose) (HPC) 98 % of control and 99 % of control | dose: 25.0 mg/kg/injection, schedule: Q01DX009 (ip), vehicle: Klucel (hydroxypropylcellulose) (HPC) 103 % of control and 115 % of control | [6] 103 % of control and 113 % of control

CC(=O)c1cc2c(cc1O)OC(C)(C)C=C2
inactive: [1] 101 % of control | [2] 99 % of control | [4] 91 % of control | [3] 92 % of control

Cc1nnc2nc(N)[nH]n2c1=O
inactive: dose: 25.0 mg/kg/injection, schedule: Q01DX005 (ip), vehicle: water 95 % of control | dose: 50.0 mg/kg/injection, schedule: Q01DX005 (ip), vehicle: water 98 % of control | dose: 100.0 mg/kg/injection, schedule: Q01DX005 (ip), vehicle: water 93 % of control

CN1C(=O)C2C(C1=O)[C@H]1c3ccccc3C=CN1[C@@H]2C(=O)c1ccccc1 (some centres not stated)
inactive: [7] 93 % of control | [8] 90 % of control | [9] 90 % of control

C/C=C1/C[N+]2(C)CCC34c5ccccc5NC32C(O)CC1C4(CO)C(=O)OC (configuration not stated)
inactive: dose: 2.0 mg/kg/injection, schedule: Q01DX009 (ip), vehicle: saline 109 % of control | dose: 4.0 mg/kg/injection, schedule: Q01DX009 (ip), vehicle: saline 106 % of control | dose: 8.0 mg/kg/injection, schedule: Q01DX009 (ip), vehicle: saline 100 % of control | dose: 16.0 mg/kg/injection, schedule: Q01DX009 (ip), vehicle: saline 106 % of control

CC1(C)CCCC2(C)C1CCC1(C)OC(/C(=C\CO)CO)CC12 (configuration not stated)
inactive: [6] 96 % of control | dose: 100.0 mg/kg/injection, schedule: Q01DX009 (ip), vehicle: Klucel (hydroxypropylcellulose) (HPC) 86 % of control

Cc1noc(-c2ccc([N+](=O)[O-])o2)n1
inactive: dose: 130.0 mg/kg/injection, schedule: Q01DX009 (ip), vehicle: Klucel (hydroxypropylcellulose) (HPC) 100 % of control | dose: 200.0 mg/kg/injection, schedule: Q01DX009 (ip), vehicle: Klucel (hydroxypropylcellulose) (HPC) 104 % of control

CC1(c2ccccc2)Nc2ccccc2C1=Nc1ccccc1 (configuration not stated)
inactive: dose: 50.0 mg/kg/injection, schedule: Q04DX003 (ip), vehicle: saline with Tween-80 99 % of control | dose: 100.0 mg/kg/injection, schedule: Q04DX003 (ip), vehicle: saline with Tween-80 96 % of control | dose: 200.0 mg/kg/injection, schedule: Q04DX003 (ip), vehicle: saline with Tween-80 100 % of control

Cc1ccc(S(=O)(=O)NCCCCCCNS(=O)(=O)c2ccc(C)cc2)cc1
inactive: [2] 86 % of control and 90 % of control | [4] 89 % of control | [3] 86 % of control and 91 % of control

CCc1nc(N)nc(N)c1-c1ccc(N2CCCCC2)cc1
inactive: dose: 7.5 mg/kg/injection, schedule: Q01DX005 (ip), vehicle: saline with Tween-80 112 % of control | dose: 15.0 mg/kg/injection, schedule: Q01DX005 (ip), vehicle: saline with Tween-80 100 % of control | dose: 30.0 mg/kg/injection, schedule: Q01DX005 (ip), vehicle: saline with Tween-80 99 % of control

C[C@@]12C(=O)OC(=O)[C@]1(C)[C@H]1CC[C@@H]2O1
inactive: dose: 0.5 mg/kg/injection, schedule: Q01DX005 (ip), vehicle: acetone 105 % of control | dose: 62.5 micrograms/kg/injection, schedule: Q01DX005 (ip), vehicle: acetone 102 % of control | dose: 125.0 micrograms/kg/injection, schedule: Q01DX005 (ip), vehicle: acetone 107 % of control | dose: 250.0 micrograms/kg/injection, schedule: Q01DX005 (ip), vehicle: acetone 102 % of control | dose: 500.0 micrograms/kg/injection, schedule: Q01DX005 (ip), vehicle: acetone 102 % of control

Cc1ccc([B-]23OCC[N+]2(CNC(=O)c2ccccc2O)CCO3)cc1 (configuration not stated)
inactive: [2] 103 % of control | [4] 108 % of control | [3] 103 % of control

O=[N+]([O-])c1ccc(N/N=C(\CI)c2ccccc2)c([N+](=O)[O-])c1
inactive: dose: 75.0 mg/kg/injection, schedule: Q01DX001 (ip), vehicle: saline with Tween-80 105 % of control | dose: 150.0 mg/kg/injection, schedule: Q01DX001 (ip), vehicle: saline with Tween-80 105 % of control | dose: 300.0 mg/kg/injection, schedule: Q01DX001 (ip), vehicle: saline with Tween-80 120 % of control

O=NNc1nc2ccc([N+](=O)[O-])cc2s1
inactive: dose: 3.12 mg/kg/injection, schedule: Q01DX009 (ip), vehicle: water 95 % of control | dose: 6.25 mg/kg/injection, schedule: Q01DX009 (ip), vehicle: water 95 % of control | dose: 12.5 mg/kg/injection, schedule: Q01DX009 (ip), vehicle: water 103 % of control and 97 % of control | dose: 25.0 mg/kg/injection, schedule: Q01DX009 (ip), vehicle: water 106 % of control and 109 % of control and 112 % of control | dose: 50.0 mg/kg/injection, schedule: Q01DX009 (ip), vehicle: water 112 % of control and 118 % of control

CN1C(=O)C2C=CC1c1ccccc12 (configuration not stated)
inactive: dose: 100.0 mg/kg/injection, schedule: Q04DX003 (ip), vehicle: saline 104 % of control | dose: 200.0 mg/kg/injection, schedule: Q04DX003 (ip), vehicle: saline 106 % of control | dose: 400.0 mg/kg/injection, schedule: Q04DX003 (ip), vehicle: saline 99 % of control

CC1=CCCCC1=O
inactive: [7] 107 % of control | [8] 106 % of control | [9] 102 % of control
